This experiment has as its target Mitogen-activated protein kinase 1 (Homo sapiens, UniProt P28482). As to the kind of experiment: Enzymatic Assay: Compounds were tested in an enzymatic assay using human ERK-2 (Mitogen Activated Kinase 1), recombinantly expressed as an n-terminal 6-His fusion protein in E. coli and corresponding to a 8-360. The substrate used was the fluorescent Omnia peptide S/T17 (Invitrogen of Carlsbad, Calif.; Cat. KNZ1171C). Test compounds were diluted in DMSO in 3-fold serial dilutions at 100× final concentrations. […] The assay was run at ambient temperature in a white 384-well polypropylene plate (Nunc, Inc of Naperville, Ill.; Cat. 267462) collecting data every 50 seconds for approximately 30 minutes on an Envision plate reader (PerkinElmer, Inc. of Waltham, Mass.); Excitation 340 nm/Emission 495 nm.

Mitogen-activated protein kinase 1, sequence (P28482 whole entry, the tested form may be a part): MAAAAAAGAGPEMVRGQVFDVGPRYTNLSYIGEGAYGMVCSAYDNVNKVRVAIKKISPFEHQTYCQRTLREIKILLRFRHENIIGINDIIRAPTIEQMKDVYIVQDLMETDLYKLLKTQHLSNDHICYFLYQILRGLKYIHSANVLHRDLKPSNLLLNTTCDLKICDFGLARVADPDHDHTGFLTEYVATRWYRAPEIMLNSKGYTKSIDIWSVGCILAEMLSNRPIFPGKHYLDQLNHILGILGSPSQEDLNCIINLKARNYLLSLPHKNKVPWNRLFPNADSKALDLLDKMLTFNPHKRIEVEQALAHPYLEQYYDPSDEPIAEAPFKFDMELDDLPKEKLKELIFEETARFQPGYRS

Turning to `Cn1nccc1Nc1cc2nc(C(=O)N[C@H](CO)c3ccc(Cl)c(F)c3)ccc2cn1`, the IC50 came out at 748 pM.

Usually IC50 stands for the point on the concentration scale where inhibition reaches its midpoint.

These data come from ChEMBL document CHEMBL3886802, “Serine/threonine kinase inhibitors” (2016).
